{"source": "BindingDB's records for PubMed 32916382", "about": "(Zhejiang University, 2020)", "key": {"[1]": {"assay": "Inhibition of IL-6 (unknown origin) by ELISA assay"}, "[2]": {"assay": "Inhibition of TNF-alpha (unknown origin) by ELISA assay"}}, "note": "pIC50: −log10 of the molar value."}
{"smiles": "CCOP(=O)(OCC)SCCSCC", "values": [{"measurement": "pIC50", "setting": "[1]", "result": 6.22}, {"measurement": "pIC50", "setting": "[2]", "result": 5.94}]}
{"smiles": "COP(=O)(OC)Oc1ccc([N+](=O)[O-])cc1", "values": [{"measurement": "pIC50", "setting": "[1]", "result": 6.25}, {"measurement": "pIC50", "setting": "[2]", "result": 6.05}]}
{"smiles": "CC(C)=CCN1Cc2cc(Cl)c(Cl)c3nc(S)n(c23)C[C@@H]1C", "values": [{"measurement": "pIC50", "setting": "[1]", "result": 5.89}, {"measurement": "pIC50", "setting": "[2]", "result": 5.85}]}
{"smiles": "CC(C)=CCN1Cc2cc(C)cc3[nH]c(=S)n(c23)CC1C", "note": "(centres undefined)", "values": [{"measurement": "pIC50", "setting": "[1]", "result": 5.70}, {"measurement": "pIC50", "setting": "[2]", "result": 6.20}]}
{"smiles": "CCCC[C@@H]1OC(=O)C2=CCCC[C@H]21", "values": [{"measurement": "pIC50", "setting": "[1]", "result": 5.79}, {"measurement": "pIC50", "setting": "[2]", "result": 5.20}]}
{"smiles": "CCSCCSP(=O)(OC)OC", "values": [{"measurement": "pIC50", "setting": "[1]", "result": 4.86}, {"measurement": "pIC50", "setting": "[2]", "result": 4.69}]}
{"smiles": "CCOC(=O)C1=C(C)N=c2s/c(=C\\c3ccc(N4CCOCC4)cc3)c(=O)n2C1c1ccccc1", "note": "(centres undefined)", "values": [{"measurement": "pIC50", "setting": "[1]", "result": 6.07}, {"measurement": "pIC50", "setting": "[2]", "result": 5.48}]}
